Data from patent US20170291905A1, “ARGININE […] INHIBITORS AND USES THEREOF” (Epizyme, Inc., priority 2014, published 2017).
Structures can show the parent of a compound that is named as a salt.

Each compound was assayed against full-length human PRMT6 (Flag- and His-tagged) (Homo sapiens, UniProt Q96LA8) (assay: PRMT6 biochemical assay (3H-SAM Flashplate, histone H4 36-50 K44me1 peptide)). Details: 1 nM PRMT6, 30 min preincubation, 75 nM peptide.
Description: S-adenosylmethionine (SAM), S-adenosylhomocysteine (SAH), bicine, Tween20, dimethylsulfoxide (DMSO), bovine skin gelatin (BSG), sodium butyrate and Tris(2-carboxyethyl)phosphine hydrochloride solution (TCEP) were purchased from Sigma-Aldrich at the highest level of purity possible. ^3H-SAM was purchase from American Radiolabeled Chemicals with a specific activity of 80 Ci/mmol. 384-well streptavidin Flashplates were purchased from PerkinElmer.
Peptide representative of human histone H4 residues 36-50 was synthesized with an N-terminal linker-affinity tag motif and a C-terminal amide cap by 21st Century Biochemicals. The peptide was purified by high-performance liquid chromatography (HPLC) to greater than 95% purity and confirmed by liquid chromatography mass spectrometry (LC-MS). The sequence was Biot-Ahx-[…]-amide and contained a monomethylated lysine at position 44 (SEQ ID NO.:5).
Full-length human PRMT6 (NM_018137.2) transcript clone was amplified from an HEK 293 cDNA library, incorporating a flanking 5′ sequence encoding a FLAG tag ([…]) (SEQ ID NO.:6) fused directly to Ser 2 of PRMT6 and a 3′ sequence encoding a hexa His sequence (HHHHHH) (SEQ ID NO.: 17) fused directly to Asp 375. The amplified gene was subcloned into pFastBacMam (Viva Biotech).
Recombinant baculovirus were generated according to Bac-to-Bac kit instructions (Life Technologies). […] Infections were carried out at 37° C. for 48 hours, harvested by centrifugation, and stored at −80° C. for purification.
Column was washed with 20 mM imidazole in the same buffer and Flag-PRMT6-His was eluted with 150 mM imidazole. Pooled fractions were dialysed against buffer Ni-A and further purified by anti-flag M2 affinity chromatography. Flag-PRMT6-His was eluted with 200 ug/ml FLAG peptide in the same buffer. Pooled fractions were dialysed in 20 mM Tris, 150 mM NaCl, 10% glycerol and 5 mM β-mercaptoethanol, pH 7.8. The purity of recovered protein was 95%.
General Procedure for PRMT6 Enzyme Assays on Peptide Substrates.
The assays were all performed in a buffer consisting of 20 mM Bicine (pH=7.6), 1 mM TCEP, 0.005% BSG, and 0.002% Tween 20, prepared on the day of use. Compounds in 100% DMSO (1 ul) were spotted into a polypropylene 384-well V-bottom plates (Greiner) using a Platemate Plus outfitted with a 384-channel head (Thermo Scientific). DMSO (1 ul) was added to Columns 11, 12, 23, 24, rows A-H for the maximum signal control and 1 ul of SAH, a known product and inhibitor of PRMT6, was added to columns 11, 12, 23, 24, rows I-P for the minimum signal control. A cocktail (40 ul) containing the PRMT6 enzyme was added by Multidrop Combi (Thermo-Fisher). The compounds were allowed to incubate with PRMT6 for 30 min at room temperature, then a cocktail (10 ul) containing SAM and peptide was added to initiate the reaction (final volume=51 ul). The final concentrations of the components were as follows: PRMT6 was 1 nM, ^3H-SAM was 200 nM, non-radiolabeled SAM was 250 nM, peptide was 75 nM, SAH in the minimum signal control wells was 1 mM, and the DMSO concentration was 2%. The assays were stopped by the addition of non-radiolabeled SAM (10 ul) to a final concentration of 400 uM, which dilutes the ^3H-SAM to a level where its incorporation into the peptide substrate is no longer detectable. 50 ul of the reaction in the 384-well polypropylene plate was then transferred to a 384-well Flashplate and the biotinylated peptides were allowed to bind to the streptavidin surface for at least 1 hour before being washed once with 0.1% Tween20 in a Biotek ELx405 plate washer. The plates were then read in a PerkinElmer TopCount plate reader to measure the quantity of ^3H-labeled peptide bound to the Flashplate surface, measured as disintegrations per minute (dpm) or alternatively, referred to as counts per minute (cpm).
Where dpm=disintegrations per minute, cmpd=signal in assay well, and min and max are the respective minimum and maximum signal controls. […]

full-length human PRMT6 (Flag- and His-tagged), sequence (Q96LA8 with tags, fused parts or gaps): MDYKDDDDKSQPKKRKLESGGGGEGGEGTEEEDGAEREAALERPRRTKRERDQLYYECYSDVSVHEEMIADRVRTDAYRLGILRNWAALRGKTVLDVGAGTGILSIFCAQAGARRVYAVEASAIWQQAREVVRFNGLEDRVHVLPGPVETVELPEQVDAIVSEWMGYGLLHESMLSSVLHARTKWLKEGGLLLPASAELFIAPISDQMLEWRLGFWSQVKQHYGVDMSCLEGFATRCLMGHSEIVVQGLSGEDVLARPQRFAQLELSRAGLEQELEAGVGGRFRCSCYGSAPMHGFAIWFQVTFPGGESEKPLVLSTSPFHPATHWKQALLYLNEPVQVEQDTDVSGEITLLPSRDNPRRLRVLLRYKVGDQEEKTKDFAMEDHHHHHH

SMILES	IC50
CNCCN(C)Cc1c[nH]nc1C1CCC(C)(C)[C@H](COCCOC)C1 (stereo partly drawn) [compound 35, {2-[({3-[(3R)-3-[(2-methoxyethoxy)methyl]-4,4-dimethylcyclohexyl]-1H-pyrazol-4-yl}methyl)(methyl)amino]ethyl}(methyl)amine]	124 nM
CCCOCC1(COCCC)CCC(c2n[nH]cc2CN(C)CCNC)CC1 [compound 36, N^1-((3-(4,4-bis(propoxymethyl)cyclohexyl)-1H-pyrazol-4-yl)methyl)-N^1,N^2-dimethylethane-1,2-diamine]	14.9 nM
CC[C@]12CC[C@](CC)(C[C@H](c3n[nH]cc3CN(C)CCNC)C1)O2 [compound 37, N1-((3-((1R,3r,5S)-1,5-diethyl-8-oxabicyclo[3.2.1]octan-3-yl)-1H-pyrazol-4-yl)methyl)-N1,N2-dimethylethane-1,2-diamine]	128 nM
CC[C@]12CC[C@](CC)(C[C@@H](c3n[nH]cc3CN(C)CCNC)C1)O2 [compound 38, N1-((3-((1R,3s,5S)-1,5-diethyl-8-oxabicyclo[3.2.1]octan-3-yl)-1H-pyrazol-4-yl)methyl)-N1,N2-dimethylethane-1,2-diamine]	132 nM
CNCCN(C)Cc1ccnn1[C@H]1CC[C@]2(CC1)CC(C)(C)CO2 [compound 50, N1-((1-((5r,8r)-3,3-dimethyl-1-oxaspiro[4.5]decan-8-yl)-1H-pyrazol-5-yl)methyl)-N1,N2-dimethylethane-1,2-diamine]	502 nM
Cc1[nH]nc([C@H]2CC[C@@]3(CC2)CC(C)(C)CO3)c1CN(C)CCN [compound 51, N1-((3-((5s,8s)-3,3-dimethyl-1-oxaspiro[4.5]decan-8-yl)-5-methyl-1H-pyrazol-4-yl)methyl)-N1-methylethane-1,2-diamine]	155 nM
Cc1[nH]nc([C@H]2CC[C@]3(CC2)CC(C)(C)CO3)c1CN(C)CCN [compound 52, N1-((3-((5r,8r)-3,3-dimethyl-1-oxaspiro[4.5]decan-8-yl)-5-methyl-1H-pyrazol-4-yl)methyl)-N1-methylethane-1,2-diamine]	202 nM
CNCCN(C)Cc1c(C)[nH]nc1[C@H]1CC[C@@]2(CC1)CC(C)(C)CO2 [compound 57]	94 nM
CNCCN(C)Cc1c(C)[nH]nc1[C@H]1CC[C@]2(CC1)CC(C)(C)CO2 [compound 58]	163 nM
Cc1[nH]nc(C2CCC3(CC2)CC(C)(C)CO3)c1CN(C)CCN (stereo not drawn) [compound 59]	131 nM
CCOCC1(COCC)CC=C(c2n[nH]cc2CN(C)CCNC)CC1 [compound 60]	41.1 nM
CNCCN(C)Cc1scnc1[C@H]1CC[C@@]2(CC1)CC(C)(C)CO2 [compound 62]	18.3 nM
CNCCN(C)Cc1nn(C)nc1[C@H]1CC[C@@]2(CC1)CC(C)(C)CO2 [compound 64]	208 nM
CNCCN(C)Cc1cnnn1[C@H]1CC[C@@]2(CC1)CC(C)(C)CO2 [compound 65]	> 10000 nM
CNCCN(C)Cc1nn[nH]c1[C@H]1CC[C@@]2(CC1)CC(C)(C)CO2 [compound 67]	51.1 nM
CNCCN(C)Cc1nncn1[C@H]1CC[C@@]2(CC1)CC(C)(C)CO2 [compound 68]	> 10000 nM
CNCCN(C)Cc1nccn1[C@H]1CC[C@@]2(CC1)CC(C)(C)CO2 [compound 69]	8040 nM
CNCCN(C)Cc1nnc(C)n1[C@H]1CC[C@@]2(CC1)CC(C)(C)CO2 [compound 71]	> 10000 nM
CNCCN(C)Cc1cncn1[C@H]1CC[C@@]2(CC1)CC(C)(C)CO2 [compound 76]	181 nM
CNCCN(C)Cc1nc(C)sc1[C@H]1CC[C@@]2(CC1)CC(C)(C)CO2 [compound 77]	180 nM
CNCCN(C)Cc1sc(C)nc1[C@H]1CC[C@@]2(CC1)CC(C)(C)CO2 [compound 78]	98.4 nM
CN(CCN)Cc1nn(C)cc1[C@H]1CC[C@@]2(CC1)CC(C)(C)CO2 [compound 80]	345 nM
CNCCN(C)Cc1nn(C)cc1[C@H]1CC[C@@]2(CC1)CC(C)(C)CO2 [compound 81]	123 nM
CNCCN(C)Cc1ncsc1[C@H]1CC[C@@]2(CC1)CC(C)(C)CO2 [compound 83]	62.7 nM
CNCCN(C)Cc1scnc1[C@H]1CC[C@]2(CC1)CC(C)(C)CO2 [compound 84]	89.3 nM
CNCCN(C)Cc1nn(C)nc1C1CCC2(CC1)CC(C)(C)CO2 (stereo not drawn) [compound 86]	444 nM

SMILES	IC50
CNCCN(C)Cc1nn[nH]c1[C@H]1CC[C@]2(CC1)CC(C)(C)CO2 [compound 89]	428 nM
CNCCN(C)Cc1nncn1[C@H]1CC[C@]2(CC1)CC(C)(C)CO2 [compound 90]	> 10000 nM
CNCCN(C)Cc1nccn1[C@H]1CC[C@]2(CC1)CC(C)(C)CO2 [compound 91]	> 10000 nM
CNCCN(C)Cc1nnc(C)n1[C@H]1CC[C@]2(CC1)CC(C)(C)CO2 [compound 93]	> 10000 nM
CNCCN(C)Cc1c(Cl)ncn1[C@H]1CC[C@]2(CC1)CC(C)(C)CO2 [compound 97]	3510 nM
CNCCN(C)Cc1cncn1[C@H]1CC[C@]2(CC1)CC(C)(C)CO2 [compound 98]	2790 nM
CNCCN(C)Cc1nc(C)sc1[C@H]1CC[C@]2(CC1)CC(C)(C)CO2 [compound 99]	317 nM
CNCCN(C)Cc1sc(C)nc1[C@H]1CC[C@]2(CC1)CC(C)(C)CO2 [compound 100]	389 nM
CN(CCN)Cc1nn(C)cc1[C@H]1CC[C@]2(CC1)CC(C)(C)CO2 [compound 102]	1140 nM
CNCCN(C)Cc1nn(C)cc1[C@H]1CC[C@]2(CC1)CC(C)(C)CO2 [compound 103]	405 nM
CN(CCN)Cc1c[nH]nc1[C@H]1CC[C@@]2(CC1)CC(C)(C)CO2 [compound 105]	18.5 nM
CN(CCN)Cc1c[nH]nc1[C@H]1CC[C@]2(CC1)CC(C)(C)CO2 [compound 106]	12.8 nM
CNCCN(C)Cc1c(C)noc1[C@H]1CC[C@@]2(CC1)CC(C)(C)CO2 [compound 113]	1150 nM
CNCCN(C)Cc1c(C)noc1[C@H]1CC[C@]2(CC1)CC(C)(C)CO2 [compound 114]	2080 nM
CNCCN(C)Cc1n[nH]cc1[C@H]1CC[C@@]2(CC1)CC(C)(C)CO2 [compound 115]	41.6 nM
CNCCN(C)Cc1n[nH]cc1[C@H]1CC[C@]2(CC1)CC(C)(C)CO2 [compound 116]	134 nM
CNCCN(C)Cc1nocc1[C@H]1CC[C@@]2(CC1)CC(C)(C)CO2 [compound 117]	1310 nM
CNCCN(C)Cc1nocc1[C@H]1CC[C@]2(CC1)CC(C)(C)CO2 [compound 118]	3530 nM
CCOCC1(COCC)CCC(c2n[nH]cc2CN(C)CCN(C)C)CC1 [compound 121]	79.3 nM
CCOCC1(COCC)CCC(c2nn(C)cc2CN(C)CCNC)CC1 [compound 122]	42.7 nM
CCOCC1(COCC)CCC(c2n[nH]cc2CN(C)CCN)CC1 [compound 123]	16.7 nM
CCOCC1(COCC)CCC(c2nn(C)cc2CN(C)CCN)CC1 [compound 124]	58.1 nM
CNCCN(C)Cc1c[nH]nc1C1CCC2(CC1)CC(C)(C)OC2=O (stereo not drawn) [compound 125]	17.4 nM
CNCCN(C)Cc1c[nH]nc1[C@H]1CC[C@@]2(CC1)COC(C)(C)C2 [compound 126, N1-((3-((5r,8r)-3,3-dimethyl-2-oxaspiro[4.5]decan-8-yl)-1H-pyrazol-4-yl)methyl)-N1,N2-dimethylethane-1,2-diamine]	39.9 nM
CNCCN(C)Cc1c[nH]nc1[C@H]1CC[C@]2(CCCCO2)CC1 [compound 127, methyl([2-[methyl([3-[(6s,9r)-1-oxaspiro[5.5]undecan-9-yl]-1H-pyrazol-4-yl]methyl)amino]ethyl])amine bistrifluoroacetic acid salt]	23.2 nM
